Measured values published in ChEMBL document CHEMBL1132542, “Vasorelaxation by new hybrid compounds containing dihydropyridine and pinacidil-like moieties” (J Med Chem, 1999).

Tests used:
[1] = biological target: T1, Voltage-dependent L-type calcium channel subunit alpha-1C (Homo sapiens, UniProt Q13936); test: Inhibition of VGCC alpha-1C-b expressed in CHO cells -30 mV holding potential, peak Ba2+ current, at 10e-5 M; format: functional, cell-based
[2] = Inhibition of [3H]P1075 binding to ATP-sensitive potassium channels of rat cardiac membranes; format: cell membranes, Membrane
Rattus norvegicus [3] = organism: Rattus norvegicus; test: Vasorelaxation activity in rat mesenteric arteries after contractile stimulus(K+ depolarization)
[4] = biological target: T1, Voltage-dependent L-type calcium channel subunit alpha-1C; test: Inhibition of VGCC alpha-1C-b expressed in CHO cells -30 mV holding potential, peak Ba2+ current, at 10e-6 M; format: functional, cell-based
[5] = biological target: T1, Voltage-dependent L-type calcium channel subunit alpha-1C; test: Inhibition of VGCC alpha-1C-b expressed in CHO cells -80 mV holding potential, peak Ba2+ current, at 10e-6 M; format: functional, cell-based
Rattus norvegicus [6] = organism: Rattus norvegicus; test: Vasorelaxation activity in rat mesenteric arteries after contractile stimulus (norepinephrine)
[7] = Vasorelaxation in rat mesenteric arteries after contractile stimulus (norepinephrine+glibenclamide); format: functional
[8] = biological target: T1, Voltage-dependent L-type calcium channel subunit alpha-1C; test: Inhibition of VGCC alpha-1C-b expressed in CHO cells -80 mV holding potential, peak Ba2+ current, at 10e-5 M; format: functional, cell-based; conditions: hamster
Rattus norvegicus [9] = organism: Rattus norvegicus; test: Vasorelaxation activity in rat mesenteric arteries after contractile stimulus(K+ depolarization).
[10] = biological target: T1, Voltage-dependent L-type calcium channel subunit alpha-1C; test: Inhibition of VGCC alpha-1C-b expressed in CHO cells -80 mV holding potential, peak Ba2+ current, at 10e-4 M; format: functional, cell-based
[11] = biological target: T1, Voltage-dependent L-type calcium channel subunit alpha-1C; test: Inhibition of VGCC alpha-1C-b expressed in CHO cells -30 mV holding potential, peak Ba2+ current, at 10e-4 M; format: functional, cell-based

T1 sequence (Q13936 whole entry): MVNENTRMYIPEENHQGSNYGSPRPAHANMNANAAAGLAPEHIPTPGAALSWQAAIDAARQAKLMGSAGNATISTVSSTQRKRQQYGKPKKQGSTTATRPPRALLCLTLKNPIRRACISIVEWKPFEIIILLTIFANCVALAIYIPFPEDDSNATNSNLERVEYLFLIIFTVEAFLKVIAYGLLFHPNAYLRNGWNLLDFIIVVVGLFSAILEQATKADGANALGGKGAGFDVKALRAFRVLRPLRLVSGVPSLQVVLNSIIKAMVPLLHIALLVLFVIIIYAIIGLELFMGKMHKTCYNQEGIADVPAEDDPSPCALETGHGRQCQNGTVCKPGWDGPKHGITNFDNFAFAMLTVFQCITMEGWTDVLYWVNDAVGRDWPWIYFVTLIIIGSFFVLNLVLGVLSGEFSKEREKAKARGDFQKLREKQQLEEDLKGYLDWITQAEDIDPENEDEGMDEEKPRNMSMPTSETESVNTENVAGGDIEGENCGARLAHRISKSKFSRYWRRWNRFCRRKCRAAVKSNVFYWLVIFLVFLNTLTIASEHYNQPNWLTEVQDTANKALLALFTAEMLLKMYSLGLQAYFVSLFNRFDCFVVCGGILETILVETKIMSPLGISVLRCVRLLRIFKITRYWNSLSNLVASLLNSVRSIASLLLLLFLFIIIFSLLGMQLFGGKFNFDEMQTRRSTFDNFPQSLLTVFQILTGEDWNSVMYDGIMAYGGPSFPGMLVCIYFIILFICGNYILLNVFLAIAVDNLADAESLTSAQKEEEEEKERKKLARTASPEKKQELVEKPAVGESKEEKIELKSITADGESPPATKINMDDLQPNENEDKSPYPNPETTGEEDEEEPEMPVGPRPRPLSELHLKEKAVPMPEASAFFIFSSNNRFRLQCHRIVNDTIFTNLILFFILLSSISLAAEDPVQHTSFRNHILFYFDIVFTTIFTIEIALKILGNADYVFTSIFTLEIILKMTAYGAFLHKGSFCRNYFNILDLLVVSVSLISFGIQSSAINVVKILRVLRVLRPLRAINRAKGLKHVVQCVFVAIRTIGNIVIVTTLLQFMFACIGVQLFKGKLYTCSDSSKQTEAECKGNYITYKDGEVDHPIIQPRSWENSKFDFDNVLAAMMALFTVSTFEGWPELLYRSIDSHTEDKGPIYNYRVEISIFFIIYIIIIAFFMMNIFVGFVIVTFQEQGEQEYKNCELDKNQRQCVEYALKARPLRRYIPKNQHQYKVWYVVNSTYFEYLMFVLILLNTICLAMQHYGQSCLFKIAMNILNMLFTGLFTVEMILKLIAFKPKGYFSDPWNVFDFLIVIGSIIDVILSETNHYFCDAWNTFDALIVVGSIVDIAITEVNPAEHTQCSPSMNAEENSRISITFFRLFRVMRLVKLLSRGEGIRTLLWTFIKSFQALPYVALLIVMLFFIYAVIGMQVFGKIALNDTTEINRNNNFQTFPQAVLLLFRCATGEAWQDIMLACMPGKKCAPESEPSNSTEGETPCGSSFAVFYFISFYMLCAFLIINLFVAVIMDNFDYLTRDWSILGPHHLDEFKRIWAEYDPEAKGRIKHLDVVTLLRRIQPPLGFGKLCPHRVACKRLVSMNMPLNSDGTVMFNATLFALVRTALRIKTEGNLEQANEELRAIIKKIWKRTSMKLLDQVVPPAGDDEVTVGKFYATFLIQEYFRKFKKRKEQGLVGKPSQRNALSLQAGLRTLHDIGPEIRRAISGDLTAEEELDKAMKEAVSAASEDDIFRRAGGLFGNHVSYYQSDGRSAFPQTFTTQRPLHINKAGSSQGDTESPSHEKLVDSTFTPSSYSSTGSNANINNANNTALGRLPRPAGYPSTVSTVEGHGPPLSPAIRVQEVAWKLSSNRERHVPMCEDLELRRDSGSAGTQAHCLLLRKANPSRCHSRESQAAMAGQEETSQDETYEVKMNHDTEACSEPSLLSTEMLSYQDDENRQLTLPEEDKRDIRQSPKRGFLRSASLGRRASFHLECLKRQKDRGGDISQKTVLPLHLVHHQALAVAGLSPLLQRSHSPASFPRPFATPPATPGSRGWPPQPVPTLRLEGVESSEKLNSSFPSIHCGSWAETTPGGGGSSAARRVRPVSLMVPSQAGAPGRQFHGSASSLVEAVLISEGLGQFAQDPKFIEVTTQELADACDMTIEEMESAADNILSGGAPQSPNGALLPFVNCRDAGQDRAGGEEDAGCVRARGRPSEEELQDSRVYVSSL

## COC(=O)C1=C(C)N=C(C)/C(=C(/O)OC)C1c1cc(N/C(=N/C(C)C(C)(C)C)NC#N)ccc1OC(F)F (stereo not drawn)
[1]
  Peak current: 2.5%
[2]
  pIC50: 6.2
Rattus norvegicus [3]
  EC50: 372 nM
[4]
  Peak current: 9.2%
[5]
  Peak current: 60.4%
Rattus norvegicus [6]
  EC50: 200 nM
[7]
  Log EC50: -6.2
[8]
  Peak current: 38.2%

## CCOC(=O)C1=C(C)N=C(C)/C(=C(/O)OCC)C1c1cc(N/C(=N/C(C)C(C)(C)C)NC#N)ccc1OC(F)F (stereo not drawn)
Rattus norvegicus [3]
  EC50: 955 nM

## CO/C(O)=C1\C(C)=NC(C)=C(C#N)C1c1cc(N/C(=N/C(C)C(C)(C)C)NC#N)ccc1OC(F)F (stereo not drawn)
Rattus norvegicus [9]
  EC50: 2340 nM

## CC(/N=C(\NC#N)Nc1ccc(OC(F)F)cc1)C(C)(C)C (stereo not drawn)
[10]
  Peak current: 26.7%
[11]
  Peak current: 2.4%
[1]
  Peak current: 10.8%
[2]
  pIC50: 8.7
Rattus norvegicus [3]
  EC50: 7410 nM
Rattus norvegicus [6]
  EC50: 288 nM
[7]
  Log EC50: -6.12
[8]
  Peak current: 58.2%
